Earlier results on one substance are cited in patent US20100323983A1, “PHARMACEUTICAL OR COSMETIC PREPARATIONS FOR TOPICAL AND/OR PARENTERAL APPLICATION, PREPARATION METHODS THEREOF, AND USES THEREOF” (priority 2007, published 2010).

The conditions of the data set: humans.

On to hyaluronic acid, for which the “excretion in the urine” value is reported as “less than 1 % of total clearance”.
